Data published in patent US12612412B2, “Antiviral heterocyclic compounds” (Enanta Pharmaceuticals, Inc., priority 2021, dated 2026).
Read-outs that look alike come from different tables or passages of the source.

Key:
[1] = system: genotype A, "Long" strain RSV; assay: RSV-A assay (CPE protection in Hep-2 cells, ATPlite readout); assay type: cell-based, Human respiratory syncytial virus (HRSV); conditions: RSV-A Long strain, MOI 0.1, CPE protection, read-out: Human RSV-A (“Long”) EC50
Method in brief: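 Hep-2 cells (8,000/well) were treated with 2-fold serial compound dilutions in duplicate and infected with RSV at MOI 0.1. After 5 days, protection from cytopathic effect was measured as cell viability by ATPlite luminescence, and EC50 values were derived.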

[2] = system: HMPV clinical isolate TN/1501/A1; assay: HMPV antiviral assay Method-B (clinical isolate TN/1501/A1 in LLC-MK2 cells, ATP-Lite readout); assay type: cell-based, Human metapneumovirus (HMPV); conditions: hMPV WT1501 (clinical isolate TN/1501/A1), 6 days
Method in brief: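 LLC-MK2 cells infected in suspension with TN/1501/A1 at MOI 0.014 in serum-free medium with 2 μg/mL TPCK-trypsin (final), incubated 6 days at 37° C. Compounds tested in duplicate, 10-point 3-fold dilutions from 10 μM. Cell health read by ATP-Lite luminescence, normalised to virus-only and cells-only controls; EC50 by four-parameter logistic fit.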

[3] = human respiratory syncytial virus
[4] = human metapneumovirus, LLC-MK2, 144 h

SMILES | EC50 [1, 3] | EC50 [2, 4] | EC50 [1] | EC50 [2]
COc1cc(C(=O)NC[C@](O)(c2cc3c(c(-c4cc(F)c(Cl)cc4F)n2)OC[C@]3(C)C(N)=O)C2CC2)cc2cn(C3(F)CC3)nc12 [Example 1180] | < 200 nM | < 500 nM | – | –
Cc1cnc2c(Cl)cc(C(=O)NC[C@](O)(c3cc4c(c(-c5cc(F)c(Cl)cc5F)n3)OC[C@]4(C)C(N)=O)C3CC3)cc2c1 [Example 1181] | < 200 nM | < 500 nM | – | –
COc1cc(C(=O)NC[C@](O)(c2cc3c(c(-c4cc(F)c(Cl)cc4F)n2)OC[C@]3(C)C(N)=O)C2CC2)cc2cc(Cl)c(C)nc12 [Example 1182] | < 200 nM | < 500 nM | – | –
Cc1cnc2c(OC(F)F)cc(C(=O)NC[C@](O)(c3cc4c(c(-c5cc(F)c(Cl)cc5F)n3)OC[C@]4(C)C(N)=O)C3CC3)cc2c1 [Example 1183] | < 200 nM | < 500 nM | – | –
COc1cc(C(=O)NC[C@](O)(c2cc3c(c(-c4ccc(F)c(F)c4Cl)n2)OC[C@]3(C)C(N)=O)C2CC2)cc2cc(Br)c(C)nc12 [Example 1184] | < 200 nM | < 500 nM | – | –
COc1cc(C(=O)NC[C@](O)(c2cc3c(c(-c4ccc(F)c(Cl)c4F)n2)OC[C@]3(C)C(N)=O)C2CC2)cc2cc(Br)c(Cl)nc12 [Example 1185] | < 200 nM | < 500 nM | – | –
Cc1nc2c(Cl)cc(C(=O)NC[C@](O)(c3cc4c(c(-c5ccc(F)c(F)c5Cl)n3)OC[C@]4(C)C(N)=O)C3CC3)cc2cc1Cl [Example 1186] | < 200 nM | < 500 nM | – | –
Cc1cnc2c(Cl)cc(C(=O)NC[C@](O)(c3cc4c(c(-c5ccc(F)c(F)c5Cl)n3)OC[C@]4(C)C(N)=O)C3CC3)cc2c1 [Example 1187] | < 200 nM | < 500 nM | – | –
COc1cc(C(=O)NC[C@](O)(c2cc3c(c(-c4cc(Cl)ccc4F)n2)OC[C@]3(C)C(N)=O)C2CC2)cc2cn(C(F)F)nc12 [Example 1188] | < 200 nM | < 500 nM | – | –
COc1cc(C(=O)NC[C@](O)(c2cc3c(c(-c4cc(Cl)ccc4F)n2)OC[C@]3(C)C(N)=O)C2CC2)cc2cc(Br)c(C)nc12 [Example 1189] | < 200 nM | < 500 nM | – | –
CNC(=O)[C@@]1(C)COc2c1cc([C@@](O)(CNC(=O)c1cc(OC)c3nn(C4CC4)cc3c1)C(F)(F)F)nc2-c1ccc(F)cc1 [Example 1190] | < 200 nM | < 500 nM | – | –
CNC(=O)[C@@]1(C)COc2c1cc([C@@](O)(CNC(=O)c1cc(OC)c3nn(C(F)F)cc3c1)C(F)(F)F)nc2-c1ccc(F)cc1 [Example 1191] | < 200 nM | < 500 nM | – | –
C[C@]1(C(N)=O)COc2c1cc([C@@](O)(CNC(=O)c1cc(OC3CC3)c3nc(Cl)ccc3c1)C(F)(F)F)nc2-c1ccc(F)cc1 [Example 1192] | < 200 nM | > 500 nM | – | –
C[C@]1(C(N)=O)COc2c1cc([C@@](O)(CNC(=O)c1cc(OC3CC3)c3nc(Cl)ccc3c1)C1CC1)nc2-c1ccc(F)cc1 [Example 1193] | < 200 nM | > 500 nM | – | –
C[C@]1(C(N)=O)COc2c1cc([C@@](O)(CNC(=O)c1cc(OC3CC3)c3nc(Cl)ccc3c1)C1CC1)nc2-c1ccc(F)c(F)c1Cl [Example 1194] | < 200 nM | > 500 nM | – | –
COc1cc(C(=O)NC[C@](O)(c2cc3c(c(-c4ccc(F)c(F)c4Cl)n2)OC[C@]3(C)C(N)=O)C2CC2)cc2cc(C)cnc12 [Example 1195] | < 200 nM | < 500 nM | – | –
COc1cc(C(=O)NC[C@](O)(c2cc3c(c(-c4ccc(F)c(F)c4Cl)n2)OC[C@]3(C)C(N)=O)C2CC2)cc2ccc(C)nc12 [Example 1196] | < 200 nM | > 500 nM | – | –
COc1cc(C(=O)NC[C@](O)(c2cc3c(c(-c4ccc5c(c4)OC(F)(F)C(F)(F)O5)n2)OC[C@]3(C)C(N)=O)C(F)(F)F)cc2cn(C3CC3)nc12 [Example 1218] | < 200 nM | > 500 nM | – | –

SMILES | EC50 [1, 3] | EC50 [2, 4] | EC50 [1] | EC50 [2]
COc1cc(C(=O)NC[C@@](O)(c2cc3c(c(-c4ccc5c(c4)OC(F)(F)C(F)(F)O5)n2)OC[C@]3(C)C(N)=O)C(F)(F)F)cc2cn(C3CC3)nc12 [Example 1219] | – | – | < 200 nM | > 500 nM
COc1cc(C(=O)NC[C@](O)(c2cc3c(c(-c4cc(Br)c(F)cc4F)n2)OC[C@]3(C)C(N)=O)C(F)(F)F)cc2cn(C3CC3)nc12 [Example 1223] | < 200 nM | – | – | < 500 nM
COc1cc(C(=O)NC[C@@](O)(c2cc3c(c(-c4cc5c(cc4Cl)OC(F)(F)O5)n2)OC[C@]3(C)C(N)=O)C(F)(F)F)cc2cn(C3CC3)nc12 [Example 1226] | < 200 nM | > 500 nM | – | –
COc1cc(C(=O)NC[C@](O)(c2cc3c(c(-c4cc5c(cc4Cl)OC(F)(F)O5)n2)OC[C@]3(C)C(N)=O)C(F)(F)F)cc2cn(C3CC3)nc12 [Example 1227] | < 200 nM | < 500 nM | – | –
COc1cc(C(=O)NC[C@](O)(c2cc3c(c(C4=CCC(F)(F)CC4)n2)OC[C@]3(C)C(N)=O)C(F)(F)F)cc2cn(C3CC3)nc12 [Example 1228] | < 200 nM | > 500 nM | – | –
COc1cc(C(=O)NC[C@@](O)(c2cc3c(c(C4=CCC(F)(F)CC4)n2)OC[C@]3(C)C(N)=O)C(F)(F)F)cc2cn(C3CC3)nc12 [Example 1229] | > 200 nM | > 500 nM | – | –
COc1cc(C(=O)NC[C@@](O)(c2cc3c(c(-c4cc5c(cc4Cl)OC(F)(F)O5)n2)OC[C@]3(C)C(N)=O)C2CC2)cc2cn(C3CC3)nc12 [Example 1230] | > 200 nM | > 500 nM | – | –
COc1cc(C(=O)NC[C@](O)(c2cc3c(c(-c4cc5c(cc4Cl)OC(F)(F)O5)n2)OC[C@]3(C)C(N)=O)C2CC2)cc2cn(C3CC3)nc12 [Example 1231] | < 200 nM | < 500 nM | – | –
COc1cc(C(=O)NC[C@@](O)(c2cc3c(c(-c4c(F)cccc4F)n2)OC[C@]3(C)C(N)=O)C(F)(F)F)cc2cn(C3CC3)nc12 [Example 1232] | > 200 nM | > 500 nM | – | –
COc1cc(C(=O)NC[C@](O)(c2cc3c(c(-c4c(F)cccc4F)n2)OC[C@]3(C)C(N)=O)C(F)(F)F)cc2cn(C3CC3)nc12 [Example 1233] | < 200 nM | > 500 nM | – | –
COc1cc(C(=O)NC[C@@](O)(c2cc3c(c(-c4c(F)cc(F)cc4Cl)n2)OC[C@]3(C)C(N)=O)C(F)(F)F)cc2cn(C3CC3)nc12 [Example 1234] | > 200 nM | > 500 nM | – | –
COc1cc(C(=O)NC[C@](O)(c2cc3c(c(-c4c(F)cc(F)cc4Cl)n2)OC[C@]3(C)C(N)=O)C(F)(F)F)cc2cn(C3CC3)nc12 [Example 1235] | < 200 nM | < 500 nM | – | –
COc1cc(C(=O)NC[C@](O)(c2cc3c(c(-c4ccccc4Cl)n2)OC[C@]3(C)C(N)=O)C(F)(F)F)cc2cn(C3CC3)nc12 [Example 1248] | < 200 nM | < 500 nM | – | –
COc1cc(C(=O)NC[C@](O)(c2cc3c(c(-c4ccc(-c5ccccc5)cc4)n2)OC[C@]3(C)C(N)=O)C(F)(F)F)cc2cn(C3CC3)nc12 [Example 1249] | > 200 nM | > 500 nM | – | –
COc1cc(C(=O)NC[C@](O)(c2cc3c(c(-c4ccccc4-c4ccccc4)n2)OC[C@]3(C)C(N)=O)C(F)(F)F)cc2cn(C3CC3)nc12 [Example 1250] | < 200 nM | > 500 nM | – | –
COc1cc(C(=O)NC[C@](O)(c2cc3c(c(-c4cccc(-c5ccccc5)c4)n2)OC[C@]3(C)C(N)=O)C(F)(F)F)cc2cn(C3CC3)nc12 [Example 1251] | > 200 nM | > 500 nM | – | –
COc1cc(C(=O)NC[C@](O)(c2cc3c(c(N4CCOCC4)n2)OC[C@]3(C)C(N)=O)C(F)(F)F)cc2cn(C3CC3)nc12 [Example 1269] | > 200 nM | > 500 nM | – | –
